Assays:
Mt-PTPa = molecular target: T1, Mt-PTPa (Mycobacterium tuberculosis, UniProt P9WIA1); test: Mt-PTPa phosphatase activity inhibition assay (hydrolysis of p-nitrophenyl phosphate, A405); type: biochemical; details: for IC50 / Ki / inhibition of Mt-PTPa compared with vanadate: Mt-PTPa 10 µM; for IC50 / inhibition of Mt-PTPa compared with vanadate: pNPP 100 µM; for IC50: 37 °C, 10 min, compound 0-1000 µM, mean ± SD (n = 3); for Ki: Dixon plot analysis, inhibitor 0-100 µM, read-out: KI (inhibitor constant); for Ki / inhibition pattern (mechanism): pNPP 0.25-2.50 mM; for inhibition of Mt-PTPa compared with vanadate: at 25 and 50 µM; for inhibition pattern (mechanism): double-reciprocal analysis
T1 construct: made in house; host or cells: E. coli BL21(DE3)pLysS
T1 sequence (P9WIA1 whole entry): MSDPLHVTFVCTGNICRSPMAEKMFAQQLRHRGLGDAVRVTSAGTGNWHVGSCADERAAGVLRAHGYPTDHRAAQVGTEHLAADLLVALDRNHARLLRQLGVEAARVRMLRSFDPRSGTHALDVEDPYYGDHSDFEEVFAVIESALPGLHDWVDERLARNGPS

[1] = molecular target: protein tyrosine phosphatase 1B (PTP1B); set-up: method as in PMID 34208908; details: in vitro; cited from earlier work
[2] = test system: N-formyl-L-methionyl-L-leucyl-L-phenylalanine-induced protein tyrosine phosphorylation; set-up: method as in PMID 9175722; details: in neutrophils; cited from earlier work

Question: With Oc1cc(O)c2c(c1)O[C@H](c1cc(O)c(O)c(O)c1)[C@H](O)C2 [Epigallocatechin, epigallocatechin] as the compound, how does the “initial library screen outcome” value (Mt-PTPa) read?
Answer: hits

Question: And the IC50 (Mt-PTPa)?
Answer: 492 ± 101 µM

Question: Which Ki (Mt-PTPa) does the source give for O=C1C=CC(=O)c2c(O)cccc21 [Juglone, 5-hydroxy-1,4-naphthalenedione] here?
Answer: 12.5 µM

Question: What about the “inhibition of Mt-PTPa compared with vanadate” value (Mt-PTPa) of the same compound?
Answer: comparable levels of inhibition to vanadate

Question: What about the “inhibition pattern (mechanism)” value (Mt-PTPa) of the same compound?
Answer: non-competitive

Question: Which results are given for O=c1c(O)c(-c2cc(O)c(O)c(O)c2)oc2cc(O)cc(O)c12 [Myricetin, myricetin]?
Answer: initial library screen outcome (Mt-PTPa): hits; IC50 (Mt-PTPa): 250 ± 25 µM

Question: For O=C(/C=C/c1ccc(O)c(O)c1)O[C@H](Cc1ccc(O)c(O)c1)C(=O)O [Rosmarinic Acid, rosmarinic acid], which “initial library screen outcome” value (Mt-PTPa) is on record?
Answer: hits

Question: What about the IC50 (Mt-PTPa) of the same compound?
Answer: 900 ± 132 µM

Question: For CC(C)=CC[C@@H](O)C1=CC(=O)c2c(O)ccc(O)c2C1=O [Shikonin, 5,8-dihydroxy-2-[(1R)-1-hydroxy-4-methyl-3-pentenyl]-1,4-naphthoquinone], which “initial library screen outcome” value (Mt-PTPa) is on record?
Answer: hits

Question: And the Ki (Mt-PTPa)?
Answer: 8.5 µM

Question: What about the IC50 (Mt-PTPa) of the same compound?
Answer: 33 ± 7 µM

Question: And the “inhibition of Mt-PTPa compared with vanadate” value (Mt-PTPa)?
Answer: comparable levels of inhibition to vanadate

Question: What about the “inhibition pattern (mechanism)” value (Mt-PTPa) of the same compound?
Answer: non-competitive

Question: And the IC50 [1]?
Answer: 15.5 µM

Question: For CC(=O)O[C@H](CC=C(C)C)C1=CC(=O)c2c(O)ccc(O)c2C1=O [acetylshikonin], which “reduction of protein tyrosine phosphorylation” value [2] is on record?
Answer: 90%

Question: With C[C@H]1[C@H](C)CC[C@]2(C(=O)O)CC[C@]3(C)C(=CC[C@@H]4[C@@]5(C)CC[C@H](O)C(C)(C)[C@@H]5CC[C@]43C)[C@H]12 [ursolic acid, reference compound] as the compound, how does the IC50 [1] read?
Answer: 8.72 µM
